Data from PubChem BioAssay (NCI).
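Each compound was tested at five concentrations against cells in 96-well plates for 48 hours. At the GI50, growth is halved. TGI marks complete inhibition of growth.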

Key:
Test in all cases: NCI anticancer screen, dose series, 48 h
786-0 renal = system: 786-0 renal
A498 renal = system: A498 renal
A549 NSCLC = system: A549 NSCLC
ACHN renal = system: ACHN renal
BT-549 breast = system: BT-549 breast
CAKI-1 renal = system: CAKI-1 renal
CCRF-CEM leukemia = system: CCRF-CEM leukemia
COLO 205 colon = system: COLO 205 colon
DU-145 prostate = system: DU-145 prostate
EKVX NSCLC = system: EKVX NSCLC
HCC-2998 colon = system: HCC-2998 colon
HCT-116 colon = system: HCT-116 colon
HCT-15 colon = system: HCT-15 colon
HL-60(TB) leukemia = system: HL-60(TB) leukemia
HOP-62 NSCLC = system: HOP-62 NSCLC
HOP-92 NSCLC = system: HOP-92 NSCLC
HS 578T breast = system: HS 578T breast
HT29 colon = system: HT29 colon
IGROV1 ovarian = system: IGROV1 ovarian
K-562 leukemia = system: K-562 leukemia
KM12 colon = system: KM12 colon
LOX IMVI melanoma = system: LOX IMVI melanoma
M14 melanoma = system: M14 melanoma
MALME-3M melanoma = system: MALME-3M melanoma
MCF7 breast = system: MCF7 breast
MDA-MB-231 breast = system: MDA-MB-231 breast
MDA-MB-435 = system: MDA-MB-435
NCI-H226 lung = system: NCI-H226 lung
NCI-H23 lung = system: NCI-H23 lung
NCI-H460 lung = system: NCI-H460 lung
NCI-H522 lung = system: NCI-H522 lung
NCI/ADR-RES ovarian = system: NCI/ADR-RES ovarian
OVCAR-3 ovarian = system: OVCAR-3 ovarian
OVCAR-5 ovarian = system: OVCAR-5 ovarian
OVCAR-8 ovarian = system: OVCAR-8 ovarian
PC-3 prostate = system: PC-3 prostate
RPMI-8226 leukemia = system: RPMI-8226 leukemia
RXF 393 renal = system: RXF 393 renal
SF-268 CNS = system: SF-268 CNS
SF-295 CNS = system: SF-295 CNS
SF-539 CNS = system: SF-539 CNS
SK-MEL-2 melanoma = system: SK-MEL-2 melanoma
SK-MEL-28 melanoma = system: SK-MEL-28 melanoma
SK-MEL-5 melanoma = system: SK-MEL-5 melanoma
SK-OV-3 ovarian = system: SK-OV-3 ovarian
SN12C renal = system: SN12C renal
SNB-19 CNS = system: SNB-19 CNS
SW-620 colon = system: SW-620 colon
T-47D breast = system: T-47D breast
TK-10 renal = system: TK-10 renal
U251 CNS = system: U251 CNS
UACC-257 melanoma = system: UACC-257 melanoma
UACC-62 melanoma = system: UACC-62 melanoma
UO-31 renal = system: UO-31 renal

SMILES: Cc1cc(C2CC(O)C(CO)O2)c(Cl)cc1Cl (stereo not drawn)
- GI50 (786-0 renal): > 100 µM
- TGI (786-0 renal): > 100 µM
- GI50 (A498 renal): 58.2 µM
- TGI (A498 renal): > 100 µM
- GI50 (A549 NSCLC): > 100 µM
- TGI (A549 NSCLC): > 100 µM
- GI50 (ACHN renal): > 100 µM
- TGI (ACHN renal): > 100 µM
- GI50 (BT-549 breast): > 100 µM
- TGI (BT-549 breast): > 100 µM
- GI50 (CAKI-1 renal): > 100 µM
- TGI (CAKI-1 renal): > 100 µM
- GI50 (CCRF-CEM leukemia): > 100 µM
- TGI (CCRF-CEM leukemia): > 100 µM
- GI50 (COLO 205 colon): > 100 µM
- TGI (COLO 205 colon): > 100 µM
- GI50 (DU-145 prostate): > 100 µM
- TGI (DU-145 prostate): > 100 µM
- GI50 (EKVX NSCLC): 98.4 µM
- TGI (EKVX NSCLC): > 100 µM
- GI50 (HCC-2998 colon): > 100 µM
- TGI (HCC-2998 colon): > 100 µM
- GI50 (HCT-116 colon): > 100 µM
- TGI (HCT-116 colon): > 100 µM
- GI50 (HCT-15 colon): > 100 µM
- TGI (HCT-15 colon): > 100 µM
- GI50 (HL-60(TB) leukemia): > 100 µM
- TGI (HL-60(TB) leukemia): > 100 µM
- GI50 (HOP-62 NSCLC): > 100 µM
- TGI (HOP-62 NSCLC): > 100 µM
- GI50 (HOP-92 NSCLC): 89.4 µM
- TGI (HOP-92 NSCLC): > 100 µM
- GI50 (HS 578T breast): 84.8 µM
- TGI (HS 578T breast): > 100 µM
- GI50 (HT29 colon): > 100 µM
- TGI (HT29 colon): > 100 µM
- GI50 (IGROV1 ovarian): 46.3 µM
- TGI (IGROV1 ovarian): > 100 µM
- GI50 (K-562 leukemia): > 100 µM
- TGI (K-562 leukemia): > 100 µM
- GI50 (KM12 colon): > 100 µM
- TGI (KM12 colon): > 100 µM
- GI50 (LOX IMVI melanoma): 84.3 µM
- TGI (LOX IMVI melanoma): > 100 µM
- GI50 (M14 melanoma): > 100 µM
- TGI (M14 melanoma): > 100 µM
- GI50 (MALME-3M melanoma): > 100 µM
- TGI (MALME-3M melanoma): > 100 µM
- GI50 (MCF7 breast): > 100 µM
- TGI (MCF7 breast): > 100 µM
- GI50 (MDA-MB-231 breast): 69.5 µM
- TGI (MDA-MB-231 breast): > 100 µM
- GI50 (MDA-MB-435): > 100 µM
- TGI (MDA-MB-435): > 100 µM
- GI50 (NCI-H226 lung): 56.4 µM
- TGI (NCI-H226 lung): > 100 µM
- GI50 (NCI-H23 lung): > 100 µM
- TGI (NCI-H23 lung): > 100 µM
- GI50 (NCI-H460 lung): > 100 µM
- TGI (NCI-H460 lung): > 100 µM
- GI50 (NCI-H522 lung): > 100 µM
- TGI (NCI-H522 lung): > 100 µM
- GI50 (NCI/ADR-RES ovarian): > 100 µM
- TGI (NCI/ADR-RES ovarian): > 100 µM
- GI50 (OVCAR-3 ovarian): > 100 µM
- TGI (OVCAR-3 ovarian): > 100 µM
- GI50 (OVCAR-5 ovarian): > 100 µM
- TGI (OVCAR-5 ovarian): > 100 µM
- GI50 (OVCAR-8 ovarian): > 100 µM
- TGI (OVCAR-8 ovarian): > 100 µM
- GI50 (PC-3 prostate): 77.8 µM
- TGI (PC-3 prostate): > 100 µM
- GI50 (RPMI-8226 leukemia): 70.4 µM
- TGI (RPMI-8226 leukemia): > 100 µM
- GI50 (RXF 393 renal): > 100 µM
- TGI (RXF 393 renal): > 100 µM
- GI50 (SF-268 CNS): > 100 µM
- TGI (SF-268 CNS): > 100 µM
- GI50 (SF-295 CNS): > 100 µM
- TGI (SF-295 CNS): > 100 µM
- GI50 (SF-539 CNS): > 100 µM
- TGI (SF-539 CNS): > 100 µM
- GI50 (SK-MEL-2 melanoma): > 100 µM
- TGI (SK-MEL-2 melanoma): > 100 µM
- GI50 (SK-MEL-28 melanoma): > 100 µM
- TGI (SK-MEL-28 melanoma): > 100 µM
- GI50 (SK-MEL-5 melanoma): > 100 µM
- TGI (SK-MEL-5 melanoma): > 100 µM
- GI50 (SK-OV-3 ovarian): > 100 µM
- TGI (SK-OV-3 ovarian): > 100 µM
- GI50 (SN12C renal): > 100 µM
- TGI (SN12C renal): > 100 µM
- GI50 (SNB-19 CNS): > 100 µM
- TGI (SNB-19 CNS): > 100 µM
- GI50 (SW-620 colon): > 100 µM
- TGI (SW-620 colon): > 100 µM
- GI50 (T-47D breast): > 100 µM
- TGI (T-47D breast): > 100 µM
- GI50 (TK-10 renal): > 100 µM
- TGI (TK-10 renal): > 100 µM
- GI50 (U251 CNS): > 100 µM
- TGI (U251 CNS): > 100 µM
- GI50 (UACC-257 melanoma): > 100 µM
- TGI (UACC-257 melanoma): > 100 µM
- GI50 (UACC-62 melanoma): 39.9 µM
- TGI (UACC-62 melanoma): > 100 µM
- GI50 (UO-31 renal): > 100 µM
- TGI (UO-31 renal): > 100 µM
